Source: patent publication US10821110B2, “Composite preparation, containing novel 3-(4--(benzyloxy)phenyl)hex-4-inoic acid derivative and another active ingredient, for preventing or treating metabolic diseases” (HYUNDAI PHARM CO., LTD., priority 2014, dated 2020)
Read-outs that look alike come from different tables or passages of the source.

Legend:
human GPR40 = biological target: T1, human GPR40 (Homo sapiens, UniProt O14842); assay: Activation of GPR40 protein: intracellular calcium change (Fluo-4, Flexstation 3) in transfected HEK-293 cells; format: cell-based; conditions: HEK-293 cells transfected with human GPR40
T1 construct: host or cells: HEK-293
T1 sequence (O14842 whole entry): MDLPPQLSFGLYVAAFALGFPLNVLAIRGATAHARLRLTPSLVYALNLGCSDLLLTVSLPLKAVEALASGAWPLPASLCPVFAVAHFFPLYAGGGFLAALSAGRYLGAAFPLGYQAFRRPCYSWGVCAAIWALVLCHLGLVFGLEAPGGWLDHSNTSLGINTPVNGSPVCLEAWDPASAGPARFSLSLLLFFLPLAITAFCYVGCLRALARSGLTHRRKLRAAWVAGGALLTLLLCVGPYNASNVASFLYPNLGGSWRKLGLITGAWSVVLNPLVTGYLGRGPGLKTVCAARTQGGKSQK
Method: The activation of GPR40 protein by a novel 3-(4-(benzyloxy)phenyl)hex-4-ynoic acid derivative of the present invention was evaluated through the change in intracellular calcium concentration due to the activity of GPR40 protein. First, HEK-293 cells were transfected with human GPR40 DNA (Origene, RC218370) by using Fugene HD (Promega, E2311). […] After 24 hours, the cell culture medium was removed, and replaced with Dulbecco's Modified Eagle Medium (DMEM, 50 μl) supplemented with 1% fetal bovine serum (FBS). For the measurement of calcium concentration, 50 μL of Fluo-4 reagent (Invitrogen, F10471) was added to each well and cultured in a 37° C. incubator for 2 hours. […] Two hours after the initiation of the culture, the prepared samples were automatically injected into the cells using Flexstation 3 (Molecular Devices), and then, the change in intracellular calcium concentration was measured using SoftMax®Pro software for 120 seconds. Here, for a non-treated group, dimethylsulfoxide (DMSO) was injected into the cells to measure the change in calcium concentration. The GPR40 protein activity was calculated from the measured calcium concentration result values using equation 1 below, and the GPR40 activity (EC50 value) by the samples was obtained. […] GPR 40 activity=(intracellular calcium concentration increased by the sample)/(intracellular calcium concentration of the non-treated group)×100 [Equation 1]

Male Sprague Dawley rats = assay: Oral glucose tolerance test (OGTT) 1; format: in vivo; conditions: Rattus norvegicus, 2 h; SD rats; 10 mg/kg oral; glucose 4 g/kg 30 minutes after; read-out: % AUC (reduction (%) of blood glucose AUC)
Method: Male Sprague Dawley rats aged 8-10 weeks old were acclimated for at least 7 days, and then only healthy animals were used for the oral glucose tolerance test (OGTT test). After fasting for 16-18 hours, five rats per group were randomly grouped and orally administered with the compounds prepared in Examples 2, 3, 4, 6, 9, 12, 14, 16, 25, 29, 36, 37, 41, 43, and 44 at a dose of 10 mg/kg each. Here, as for a non-treated group (vehicle), a solution (PEG 400/Tween 80/0.25% CMC, 5%/5%/90%, v/v/v) containing 5% polyethyleneglycol/5% tween 80/0.25% carboxymethylcelluluse (CMC) was orally administered at the same dose. Glucose (4 g/kg) was orally administered at a dose of 5 ml/kg 30 minutes after each sample was administered. Then, the blood glucose was measured by using Accu-chek active strip (Roche diagnostic Co.).

[1] = intracellular calcium, read-out: EC50
[2] = values in text, read-out: concentration activating the GPR40 protein by 50% (EC50)

Row | EC50 (human GPR40; [1]) [µM] | EC50 (human GPR40; [2]) [µM] | Compound | inhibition in vivo at 10 mg/kg (Male Sprague Dawley rats) [%]
1 | > 0.3 |  | CC#CC(CC(=O)O)c1ccc(OCc2ccc(CN3CCC(c4ccccc4)CC3)cc2)cc1 (centres unmarked) [Example 17, 3-(4-(4-((4-phenylpiperidin-1-yl)methyl)benzyloxy)phenyl)hex-4-ynoic acid] | 
2 | > 0.3 |  | CC#CC(CC(=O)O)c1ccc(OCc2ccc(CN3CCN(c4ccc(F)cc4)CC3)cc2)cc1 (centres unmarked) [Example 18, 3-(4-(4-((4-(4-fluorophenyl)piperazin-1-yl)methyl)benzyloxy)phenyl)hex-4-ynoic acid] | 
3 | > 0.3 |  | CC#CC(CC(=O)O)c1ccc(OCc2ccc(CN3CCN(c4ccc(C(F)(F)F)cc4)CC3)cc2)cc1 (centres unmarked) [Example 19, 3-(4-(4-((4-(4-(trifluoromethyl)phenyl)piperazin-1-yl)methyl)benzyloxy)phenyl)hex-4-ynoic acid] | 
4 | > 0.3 |  | CC#CC(CC(=O)O)c1ccc(OCc2ccc(CN3CCN(c4ccc(OCCCS(C)(=O)=O)cc4)CC3)cc2)cc1 (centres unmarked) [Example 20, 3-(4-(4-((4-(4-(3-(methylsulfonyl)propoxy)phenyl)piperazin-1-yl)methyl)benzyloxy)phenyl)hex-4-ynoic acid] | 
5 | > 0.3 |  | CC#C[C@@H](CC(=O)O)c1ccc(OCc2ccc(CN3CCN(c4ccc(C(F)(F)F)cc4)CC3)cc2)cc1 [Example 22, (S)-3-(4-(4-((4-(4-(trifluoromethyl)phenyl)piperazin-1-yl)methyl)benzyloxy)phenyl)hex-4-ynoic acid] | 
6 | > 0.3 |  | CC#C[C@@H](CC(=O)O)c1ccc(OCc2ccc(CN3CCC(c4ccccc4)CC3)cc2)cc1 [Example 26, (S)-3-(4-(4-((4-phenylpiperidin-1-yl)methyl)benzyloxy)phenyl)hex-4-ynoic acid] | 
7 | < 0.2 | ≤ 0.2 | CC#C[C@@H](CC(=O)O)c1ccc(OCc2ccc(CN3Cc4ccccc4C3)cc2)cc1 [Example 27, (S)-3-(4-(4-(isoindolin-2-ylmethyl)benzyloxy)phenyl)hex-4-ynoic acid] | 
8 | < 0.2 | ≤ 0.2 | CC#C[C@@H](CC(=O)O)c1ccc(OCc2ccc(CN3CC=C(c4ccccc4)CC3)cc2)cc1 [Example 28, (S)-3-(4-(4-((4-phenyl-5,6-dihydropyridin-1(2H)-yl)methyl)benzyloxy)phenyl)hex-4-ynoic acid] | 
9 | > 0.3 |  | CC#C[C@@H](CC(=O)O)c1ccc(OCc2ccc(CN3CC=C(c4ccc(S(C)(=O)=O)cc4)CC3)cc2)cc1 [Example 32, (S)-3-(4-(4-((4-(4-(methylsulfonyl)phenyl)-5,6-dihydropyridin-1(2H)-yl)methyl)benzyloxy)phenyl)hex-4-ynoic acid] | 
10 | > 0.3 |  | CC#C[C@@H](CC(=O)O)c1ccc(OCc2ccc(CN3CC=C(c4ccc(OCCCS(C)(=O)=O)cc4)CC3)cc2)cc1 [Example 33, (S)-3-(4-(4-((4-(4-(3-(methylsulfonyl)propoxy)phenyl)-5,6-dihydropyridin-1(2H)-yl)methyl)benzyloxy)phenyl)hex-4-ynoic acid] | 
11 | > 0.3 |  | CC#C[C@@H](CC(=O)O)c1ccc(OCc2ccc(C(C)N3CCc4ccccc4C3)cc2)cc1 (stereo partly drawn) [Example 34, (3S)-3-(4-(4-(1-(3,4-dihydroisoquinolin-2(1H)-yl)ethyl)benzyloxy)phenyl)hex-4-ynoic acid] | 
12 | > 0.3 |  | CC#C[C@@H](CC(=O)O)c1ccc(OCc2ccc(CN3CCN(c4ccc(O)cc4)CC3)cc2)cc1 [Example 35, (S)-3-(4-(4-((4-(4-hydroxyphenyl)piperazin-1-yl)methyl)benzyloxy)phenyl)hex-4-ynoic acid] | 
13 | > 0.3 |  | CC#C[C@@H](CC(=O)O)c1ccc(OCc2ccc(CN3CCN(c4ccc(C#N)cn4)CC3)cc2)cc1 [Example 45, (S)-3-(4-(4-((4-(5-cyanopyridin-2-yl)piperazin-1-yl)methyl)benzyloxy)phenyl)hex-4-ynoic acid] | 
14 | > 0.3 |  | CC#C[C@@H](CC(=O)O)c1ccc(OCc2ccc(CN3CCC(c4ccccc4)C3)cc2)cc1 (stereo partly drawn) [Example 46, (3S)-3-(4-(4-((3-phenylpyrrolidin-1-yl)methyl)benzyloxy)phenyl)hex-4-ynoic acid] | 
15 | > 0.3 |  | CC#C[C@@H](CC(=O)O)c1ccc(OCc2ccc(CCN3CCc4cc(OC)ccc4C3)cc2)cc1 [Example 48, (S)-3-(4-(4-(2-(6-methoxy-3,4-dihydroisoquinolin-2(1H)-yl)ethyl)benzyloxy)phenyl)hex-4-ynoic acid] | 
16 | > 0.3 |  | CC#C[C@@H](CC(=O)O)c1ccc(OCc2ccc(CCN3Cc4ccccc4C3)cc2)cc1 [Example 49, (S)-3-(4-(4-(2-(isoindolin-2-yl)ethyl)benzyloxy)phenyl)hex-4-ynoic acid] | 
17 | > 0.3 |  | CC#C[C@@H](CC(=O)O)c1ccc(OCc2ccc(CCN3CCc4ccccc4C3)cc2)cc1 [Example 50, (S)-3-(4-(4-(2-(3,4-dihydroisoquinolin-2(1H)-yl)ethyl)benzyloxy)phenyl)hex-4-ynoic acid] | 

Second part, the compound before the results:

Row | Compound | EC50 (human GPR40; [1]) [µM] | EC50 (human GPR40; [2]) [µM] | inhibition in vivo at 10 mg/kg (Male Sprague Dawley rats) [%]
18 | CC#CC(CC(=O)O)c1ccc(OCc2cccc(C3=CCC4(CC3)OCCO4)c2)cc1 (centres unmarked) [Example 1, 3-(4-(3-(1,4-dioxaspiro[4.5]dec-7-en-8-yl)benzyloxy)phenyl)hex-4-ynoic acid] | > 0.3 |  | 
19 | CC#CC(CC(=O)O)c1ccc(OCc2cccc(C3=CCC4(CC3)OCCO4)c2)cc1 [Example 2, L-lysine 3-(4-(3-(1,4-dioxaspiro[4.5]dec-7-en-8-yl)benzyloxy)phenyl)hex-4-ynoate] | > 0.3 |  | 17.2
20 | CC#CC(CC(=O)O)c1ccc(OCc2ccc(C3=CCC4(CC3)OCCO4)cc2)cc1 (centres unmarked) [Example 3] |  |  | 12.5
21 | CC#CC(CC(=O)O)c1ccc(OCc2cccc(C3=CCC(=O)CC3)c2)cc1 (centres unmarked) [Example 4, 3-(4-(3-(4-oxocyclohex-1-enyl)benzyloxy)phenyl)hex-4-ynoic acid] | > 0.3 |  | 16.2
22 | CC#CC(CC(=O)O)c1ccc(OCc2cccc(C3=CCC(O)CC3)c2)cc1 [Example 6, L-lysine 3-(4-(3-(4-hydroxycyclohex-1-enyl)benzyloxy)phenyl)hex-4-ynoate] |  |  | 15.2
23 | CC#C[C@@H](CC(=O)O)c1ccc(OCc2cccc(C3=CCC4(CC3)OCCO4)c2)cc1 [Example 7, (3S)-3-(4-(3-(1,4-dioxaspiro[4.5]dec-7-en-8-yl)benzyloxy)phenyl)hex-4-ynoic Acid] | < 0.2 | ≤ 0.2 | 
24 | CC#C[C@H](CC(=O)O)c1ccc(OCc2cccc(C3=CCC4(CC3)OCCO4)c2)cc1 [Example 8, (3R)-3-(4-(3-(1,4-dioxaspiro[4.5]dec-7-en-8-yl)benzyloxy)phenyl)hex-4-ynoic acid] | > 0.3 |  | 
25 | CC#C[C@H](CC(=O)O)c1ccc(OCc2cccc(C3=CCC4(CC3)OCCO4)c2)cc1 [Example 10, L-lysine (3R)-3-(4-(3-(1,4-dioxaspiro[4.5]dec-7-en-8-yl)benzyloxy)phenyl)hex-4-ynoate] | > 0.3 |  | 
26 | CC#CC(CC(=O)O)c1ccc(OCc2ccc(CN3CCc4ccccc4C3)cc2)cc1 (centres unmarked) [Example 12, 3-(4-(4-((3,4-dihydroisoquinolin-2(1H)-yl)methyl)benzyloxy)phenyl)hex-4-ynoic acid] | < 0.2 | ≤ 0.2 | 31
27 | CC#CC(CC(=O)O)c1ccc(OCc2ccc(CN3CCc4ccccc4C3)c(C3=CCCCC3)c2)cc1 (centres unmarked) [Example 13, 3-(4-(3-cyclohexenyl-4-((3,4-dihydroisoquinolin-2(1H)-yl)methyl)benzyloxy)phenyl)hex-4-ynoic acid] | > 0.3 |  | 
28 | CC#CC(CC(=O)O)c1ccc(OCc2ccc(CN3CCN(c4ccccc4)CC3)cc2)cc1 (centres unmarked) [Example 15, 3-(4-(4-((4-phenylpiperazin-1-yl)methyl)benzyloxy)phenyl)hex-4-ynoic acid] | > 0.3 |  | 
29 | CC#C[C@@H](CC(=O)O)c1ccc(OCc2ccc(CN3CCN(c4ccc(OCOC)cc4)CC3)cc2)cc1 [Example 29, (S)-3-(4-(4-((4-(4-(methoxymethoxy)phenyl)piperazin-1-yl)methyl)benzyloxy)phenyl)hex-4-ynoic acid] |  |  | 27.1
30 | CC#C[C@@H](CC(=O)O)c1ccc(OCc2ccc(CN3Cc4ccccc4C3)cc2)cc1 [Example 37, sodium (S)-3-(4-(4-(isoindolin-2-ylmethyl)benzyloxy)phenyl)hex-4-ynoate] |  |  | 28.5
31 | potassium (S)-3-(4-(4-((4-(4-(trifluoromethyl)phenyl)piperazin-1-yl)methyl)benzyloxy)phenyl)hex-4-ynoate [Example 24] | 0.2 to 0.3 |  | 
